Test results: patent US9624239B2, “Protein kinase inhibitors” (Pharmascience Inc., priority 2011, dated 2017)

How the values were obtained:
[1] = target: T1, histidine tagged recombinant human full-length Bruton Agammaglobulinemia Tyrosine Kinase (Btk) (Homo sapiens, UniProt Q06187); assay: Btk kinase inhibition assay (fluorescence polarization, KinEASE FP Fluorescein Green); format: biochemical; conditions: 10 μM ATP, 250 μM substrate, 60 minutes, room temperature; Ki from IC50 by Cheng-Prusoff; read-out: ki50 (nM), Inhibition of Btk
T1 construct: recombinant human full-length Bruton Agammaglobulinemia Tyrosine Kinase (Btk); histidine tag
T1 sequence (Q06187 whole entry): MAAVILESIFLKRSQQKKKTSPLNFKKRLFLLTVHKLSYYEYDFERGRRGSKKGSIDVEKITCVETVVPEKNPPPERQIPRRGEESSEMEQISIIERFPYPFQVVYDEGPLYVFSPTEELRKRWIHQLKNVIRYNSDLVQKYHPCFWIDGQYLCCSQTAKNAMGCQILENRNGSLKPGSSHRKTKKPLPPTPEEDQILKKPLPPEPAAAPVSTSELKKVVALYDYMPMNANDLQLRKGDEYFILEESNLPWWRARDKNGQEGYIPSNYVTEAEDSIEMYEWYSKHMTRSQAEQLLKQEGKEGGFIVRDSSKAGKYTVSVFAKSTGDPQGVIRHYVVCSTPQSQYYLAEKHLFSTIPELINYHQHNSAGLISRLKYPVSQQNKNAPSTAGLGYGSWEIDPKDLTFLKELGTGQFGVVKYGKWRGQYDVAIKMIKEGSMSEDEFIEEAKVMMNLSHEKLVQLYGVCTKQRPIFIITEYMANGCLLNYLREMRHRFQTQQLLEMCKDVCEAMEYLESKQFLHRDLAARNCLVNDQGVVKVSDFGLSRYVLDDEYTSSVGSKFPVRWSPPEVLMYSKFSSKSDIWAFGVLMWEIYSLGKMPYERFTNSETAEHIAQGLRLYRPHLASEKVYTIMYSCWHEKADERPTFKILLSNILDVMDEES
Method: (§1) Kinase Binding Btk and Lck Kinase Inhibition Assay
(§2) Fluorescence polarization-based kinase assays were performed in 384 well-plate format using histidine tagged recombinant human full-length Bruton Agammaglobulinemia Tyrosine Kinase (Btk) or histidine tagged recombinant Human Lymphocyte-Specific Protein Tyrosine Kinase (Lck) and a modified protocol of the KinEASE™ FP Fluorescein Green Assay supplied from Millipore. Kinase reaction were performed at room temperature for 60 minutes in presence of 250 μM substrate, 10 μM ATP and variable test article concentrations. The reaction was stopped with EDTA/kinease detection reagents and the polarization measured on a Tecan 500 instrument. From the dose-response curve obtained, the IC50 was calculated using Graph Pad Prisms® using a non-linear fit curve. The Km for ATP on each enzyme was experimentally determined and the Ki values calculated using the Cheng-Prusoff equation (see: Cheng Y, Prusoff W H. (1973) Relationship between the inhibition constant (K1) and the concentration of inhibitor which causes 50 percent inhibition (I50) of an enzymatic reaction”. Biochem Pharmacol 22 (23): 3099-108).
(§3) ki values are reported in Tables 2 and 3: • a—Less than 100 nM; b—less than 1000 nM; c—more than 1000 nM

[2] = target: T2, histidine tagged recombinant Human Lymphocyte-Specific Protein Tyrosine Kinase (Lck) (Homo sapiens, UniProt P06239); assay: Lck kinase inhibition assay (fluorescence polarization, KinEASE FP Fluorescein Green); format: biochemical; conditions: 10 μM ATP, 250 μM substrate, 60 minutes, room temperature; Ki from IC50 by Cheng-Prusoff
T2 construct: histidine tag
T2 sequence (P06239 whole entry): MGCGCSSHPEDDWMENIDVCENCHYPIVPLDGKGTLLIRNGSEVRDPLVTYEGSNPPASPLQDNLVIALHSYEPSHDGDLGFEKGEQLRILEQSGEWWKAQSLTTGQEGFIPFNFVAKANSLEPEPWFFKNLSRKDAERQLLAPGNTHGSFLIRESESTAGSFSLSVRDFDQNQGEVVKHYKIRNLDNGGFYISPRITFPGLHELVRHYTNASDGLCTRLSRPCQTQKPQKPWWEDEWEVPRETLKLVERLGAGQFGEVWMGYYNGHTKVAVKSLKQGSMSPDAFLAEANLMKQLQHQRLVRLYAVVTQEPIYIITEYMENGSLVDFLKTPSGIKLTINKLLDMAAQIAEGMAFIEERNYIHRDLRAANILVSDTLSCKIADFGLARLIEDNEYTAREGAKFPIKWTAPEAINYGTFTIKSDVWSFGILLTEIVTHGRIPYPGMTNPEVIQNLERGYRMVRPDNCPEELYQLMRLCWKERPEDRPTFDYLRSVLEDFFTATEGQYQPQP
Method: as §1, §2, §3

mouse splenocytes = assay: Splenic cell proliferation assay (anti-IgM stimulated B cell proliferation, Cell Titer-Glo); format: cell-based; conditions: Splenocyte; CD1 mouse splenocytes, 1 h pre-treatment, 2.5 ug/ml anti-IgM F(ab')2 for 72 h; read-out: EC50 (nM), Inhibition of splenic cell proliferation
Method: Splenic Cell Proliferation Assay
Splenocytes were obtained from 6 week old male CD1 mice (Charles River Laboratories Inc.). Mouse spleens were manually disrupted in PBS and filtered using a 70 μm cell strainer followed by ammonium chloride red blood cell lysis. Cells were washed, resuspended in Splenocyte Medium (HyClone RPMI supplemented with 10% heat-inactivated FBS, 0.5× non-essential amino acids, 10 mM HEPES, 50 uM beta mercaptoethanol) and incubated at 37° C., 5% CO2 for 2 h to remove adherent cells. Suspension cells were seeded in 96 well plates at 50,000 cells per well and incubated at 37° C., 5% CO2 for 1 h. Splenocytes were pre-treated in triplicate with 10,000 nM curves of Formula 1 compounds for 1 h, followed by stimulation of B cell proliferation with 2.5 ug/ml anti-IgM F(ab′)2 (Jackson ImmunoResearch) for 72 h. Cell proliferation was measured by Cell Titer-Glo Luminescent Assay (Promega). EC50 values (50% proliferation in the presence of compound as compared to vehicle treated controls) were calculated from dose response compound curves using GraphPad Prism Software.
EC50 values are reported in Table 4: • a—Less than 100 nM; b—less than 1000 nM; c—more than 1000 nM

SMILES | Ki [1] [nM] | Ki [2] [nM] | EC50 (mouse splenocytes) [nM]
Nc1ncnc2c3c(n(-c4ccc(Oc5ccc(Br)cc5)cc4)c12)CCC3 [Compound 3] | < 1000 | < 1000 | > 1000
Nc1ncnc2c3c(n(-c4ccc(Oc5ccc(Cl)cc5)cc4)c12)CCC3 [Compound 4] | < 1000 | < 1000 | > 1000
Nc1ncnc2c3c(n(-c4ccc(Oc5ccccc5)cc4)c12)CNC3 [Compound 7] | > 1000 | < 1000 | > 1000
Nc1ncnc2c3c(n(-c4ccc(Oc5ccccc5)cc4)c12)CCCC3 [Compound 13] | < 1000 | < 1000 | > 1000
CCN1Cc2c(n(-c3ccc(Oc4ccccc4)cc3)c3c(N)ncnc23)C1 [Compound 14] | > 1000 | < 1000 | > 1000
CC1OCc2c1c1ncnc(N)c1n2-c1ccc(Oc2ccccc2)cc1 (stereo not drawn) [Compound 20] | < 100 | < 100 | 100 to 1000
Nc1ncnc2c3c(n(-c4ccc(Oc5ccccc5)cc4)c12)COC3 [Compound 21] | < 1000 | < 100 | > 1000
COc1cc(-n2c3c(c4ncnc(N)c42)CCC3)ccc1Oc1ccccc1 [Compound 23] | < 1000 | < 100 | > 1000
CCC1OCc2c1c1ncnc(N)c1n2-c1ccc(Oc2ccccc2)cc1 (stereo not drawn) [Compound 24] | < 1000 | < 100 | 100 to 1000
COc1cccc(Oc2ccc(-n3c4c(c5ncnc(N)c53)C(C)OC4)cc2)c1 (stereo not drawn) [Compound 25] | < 100 | < 100 | 100 to 1000
Nc1ncnc2c3c(n(-c4ccc(Oc5ccccc5)cc4)c12)COC3CCCOCc1ccccc1 (stereo not drawn) [Compound 26] | > 1000 | < 1000 | > 1000
Nc1ncnc2c3c(n(-c4ccc(Oc5ccccc5)cc4)c12)COC3CCCO (stereo not drawn) [Compound 27] | < 1000 | < 100 | > 1000
COc1ccccc1Oc1ccc(-n2c3c(c4ncnc(N)c42)C(C)OC3)cc1 (stereo not drawn) [Compound 28] | < 1000 | < 1000 | > 1000
CC1OCc2c1c1ncnc(N)c1n2-c1ccc(Oc2cccc(C(F)(F)F)c2)cc1 (stereo not drawn) [Compound 29] | < 1000 | < 1000 | 100 to 1000
Nc1ncnc2c3c(n(-c4ccc(Oc5ccccc5)cc4)c12)COC3c1ccccc1 (stereo not drawn) [Compound 30] | < 100 | < 1000 | > 1000
CC1OCc2c1c1ncnc(N)c1n2-c1ccc(Oc2cccc(Cl)c2)cc1 (stereo not drawn) [Compound 31] | < 1000 | < 100 | 100 to 1000
CC1OCc2c1c1ncnc(N)c1n2-c1ccc(Oc2ccccc2C(F)(F)F)cc1 (stereo not drawn) [Compound 32] | < 1000 | < 1000 | 100 to 1000
CC1OCc2c1c1ncnc(N)c1n2-c1ccc(Oc2ccccc2Cl)cc1 (stereo not drawn) [Compound 33] | < 1000 | < 100 | 100 to 1000
CC1OCc2c1c1ncnc(N)c1n2-c1ccc(Oc2ccccc2F)cc1 (stereo not drawn) [Compound 34] | < 100 | < 100 | > 1000
CC1OCc2c1c1ncnc(N)c1n2-c1ccc(Oc2cccc(F)c2)cc1 (stereo not drawn) [Compound 35] | < 1000 | < 1000 | > 1000
Nc1ncnc2c3c(n(-c4ccc(Oc5ccccc5)cc4)c12)COC3CCCOc1ccccc1 (stereo not drawn) [Compound 36] | > 1000 | < 1000 | > 1000

SMILES | Ki [1] [nM] | Ki [2] [nM] | EC50 (mouse splenocytes) [nM]
CC1OCc2c1c1ncnc(N)c1n2-c1ccc(Oc2cccc(C#N)c2)cc1 (stereo not drawn) [Compound 37] | > 1000 | > 1000 | > 1000
CC1OCc2c1c1ncnc(N)c1n2-c1ccc(Oc2cccc(C(N)=O)c2)cc1 (stereo not drawn) [Compound 38] | > 1000 | > 1000 | > 1000
CC1OCc2c1c1ncnc(N)c1n2-c1ccc(Oc2ccccc2)c(Cl)c1 (stereo not drawn) [Compound 39] | < 1000 | < 100 | > 1000
CC1OCc2c1c1ncnc(N)c1n2-c1ccc(Oc2ccccc2)c(F)c1 (stereo not drawn) [Compound 40] | < 1000 | < 100 | 100 to 1000
CCOc1cccc(Oc2ccc(-n3c4c(c5ncnc(N)c53)C(C)OC4)cc2)c1 (stereo not drawn) [Compound 41] | < 100 | < 100 | 100 to 1000
CC1OCc2c1c1ncnc(N)c1n2-c1ccc(Oc2ccc(F)cc2)cc1 (stereo not drawn) [Compound 42] | > 1000 | < 1000 | > 1000
CC1OCc2c1c1ncnc(N)c1n2-c1ccc(Oc2cccc(OCc3ccccc3)c2)cc1 (stereo not drawn) [Compound 43] | < 100 | < 100 | 100 to 1000
CC1OCc2c1c1ncnc(N)c1n2-c1ccc(Oc2cccc(O)c2)cc1 (stereo not drawn) [Compound 44] | < 100 | < 100 | > 1000
CC1OCc2c1c1ncnc(N)c1n2-c1ccc(Oc2cccc([N+](=O)[O-])c2)cc1 (stereo not drawn) [Compound 45] | > 1000 | < 1000 | > 1000
CC1OCc2c1c1ncnc(N)c1n2-c1ccc(Oc2cccc(OCC#N)c2)cc1 (stereo not drawn) [Compound 46] | < 100 | < 100 | 100 to 1000
CC1OCc2c1c1ncnc(N)c1n2-c1ccc(Oc2cccc(OCc3ccc(F)cc3)c2)cc1 (stereo not drawn) [Compound 49] | < 100 | < 100 | 100 to 1000
CC1OCc2c1c1ncnc(N)c1n2-c1ccc(Oc2cccc(OCCOc3ccc(Cl)cc3)c2)cc1 (stereo not drawn) [Compound 50] | < 100 | < 100 | > 1000
CC1OCc2c1c1ncnc(N)c1n2-c1ccc(Oc2cccc(OCc3cccnc3)c2)cc1 (stereo not drawn) [Compound 53] | < 100 | < 100 | 100 to 1000
CC1OCc2c1c1ncnc(N)c1n2-c1ccc(Oc2cccc(OCc3ccncc3)c2)cc1 (stereo not drawn) [Compound 54] | < 100 | < 100 | > 1000
CC1OCc2c1c1ncnc(N)c1n2-c1ccc(Oc2cccc(OCC3CCCCC3)c2)cc1 (stereo not drawn) [Compound 56] | < 100 | < 100 | > 1000
CC1OCc2c1c1ncnc(N)c1n2-c1ccc(Oc2cccc(OCc3ccc(C(F)(F)F)cc3)c2)cc1 (stereo not drawn) [Compound 57] | < 100 | < 100 | > 1000
CC1OCc2c1c1ncnc(N)c1n2-c1ccc(Oc2ccccc2C#N)cc1 (stereo not drawn) [Compound 58] | < 1000 | < 100 | 100 to 1000
COc1cc(F)cc(Oc2ccc(-n3c4c(c5ncnc(N)c53)C(C)OC4)cc2)c1 (stereo not drawn) [Compound 59] | < 1000 | < 100 | 100 to 1000
CC1OCc2c1c1ncnc(N)c1n2-c1ccc(Oc2ccccc2C(N)=O)cc1 (stereo not drawn) [Compound 60] | > 1000 | < 1000 | > 1000
Nc1ncnc2c3c(n(-c4ccc(Oc5cccc(O)c5)cc4)c12)CCC3 [Compound 61] | > 1000 | < 100 | > 1000
